Experimental data published in ChEMBL document CHEMBL1201862, “PubChem BioAssay data set” (2004).
Calls of active or inactive are those of the source. Cut-off read from the data, not from the text of the source, for most assays here: actives have a measured EC50 and inactives only a lower limit.

Legend:
[1] = test system: CHO; assay: cytotoxicity in TLR9-MyD88 CHO cells, dose response, cytotoxicity control for TLR9-MyD88 binding inhibitor project, cell-based, luminescence (AID 588339); assay type: functional, hamster; details: Cricetulus griseus;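 note: CHO cells stably coexpressing TLR9 and MyD88 fusions from primary screen; compound exposure lasted 48 hours before viability readout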
[2] = target: T1, Fatty acid synthase (Homo sapiens, UniProt P49327); assay: FAS thioesterase domain inhibitors, dose response, biochemical, kinetic fluorescence intensity (AID 624326); assay type: functional;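 note: rate of fluorescence rise from hydrolysis of a fluorogenic O-methyl fluorescein ester substrate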
T1 sequence (P49327 whole entry, the tested form may be a part): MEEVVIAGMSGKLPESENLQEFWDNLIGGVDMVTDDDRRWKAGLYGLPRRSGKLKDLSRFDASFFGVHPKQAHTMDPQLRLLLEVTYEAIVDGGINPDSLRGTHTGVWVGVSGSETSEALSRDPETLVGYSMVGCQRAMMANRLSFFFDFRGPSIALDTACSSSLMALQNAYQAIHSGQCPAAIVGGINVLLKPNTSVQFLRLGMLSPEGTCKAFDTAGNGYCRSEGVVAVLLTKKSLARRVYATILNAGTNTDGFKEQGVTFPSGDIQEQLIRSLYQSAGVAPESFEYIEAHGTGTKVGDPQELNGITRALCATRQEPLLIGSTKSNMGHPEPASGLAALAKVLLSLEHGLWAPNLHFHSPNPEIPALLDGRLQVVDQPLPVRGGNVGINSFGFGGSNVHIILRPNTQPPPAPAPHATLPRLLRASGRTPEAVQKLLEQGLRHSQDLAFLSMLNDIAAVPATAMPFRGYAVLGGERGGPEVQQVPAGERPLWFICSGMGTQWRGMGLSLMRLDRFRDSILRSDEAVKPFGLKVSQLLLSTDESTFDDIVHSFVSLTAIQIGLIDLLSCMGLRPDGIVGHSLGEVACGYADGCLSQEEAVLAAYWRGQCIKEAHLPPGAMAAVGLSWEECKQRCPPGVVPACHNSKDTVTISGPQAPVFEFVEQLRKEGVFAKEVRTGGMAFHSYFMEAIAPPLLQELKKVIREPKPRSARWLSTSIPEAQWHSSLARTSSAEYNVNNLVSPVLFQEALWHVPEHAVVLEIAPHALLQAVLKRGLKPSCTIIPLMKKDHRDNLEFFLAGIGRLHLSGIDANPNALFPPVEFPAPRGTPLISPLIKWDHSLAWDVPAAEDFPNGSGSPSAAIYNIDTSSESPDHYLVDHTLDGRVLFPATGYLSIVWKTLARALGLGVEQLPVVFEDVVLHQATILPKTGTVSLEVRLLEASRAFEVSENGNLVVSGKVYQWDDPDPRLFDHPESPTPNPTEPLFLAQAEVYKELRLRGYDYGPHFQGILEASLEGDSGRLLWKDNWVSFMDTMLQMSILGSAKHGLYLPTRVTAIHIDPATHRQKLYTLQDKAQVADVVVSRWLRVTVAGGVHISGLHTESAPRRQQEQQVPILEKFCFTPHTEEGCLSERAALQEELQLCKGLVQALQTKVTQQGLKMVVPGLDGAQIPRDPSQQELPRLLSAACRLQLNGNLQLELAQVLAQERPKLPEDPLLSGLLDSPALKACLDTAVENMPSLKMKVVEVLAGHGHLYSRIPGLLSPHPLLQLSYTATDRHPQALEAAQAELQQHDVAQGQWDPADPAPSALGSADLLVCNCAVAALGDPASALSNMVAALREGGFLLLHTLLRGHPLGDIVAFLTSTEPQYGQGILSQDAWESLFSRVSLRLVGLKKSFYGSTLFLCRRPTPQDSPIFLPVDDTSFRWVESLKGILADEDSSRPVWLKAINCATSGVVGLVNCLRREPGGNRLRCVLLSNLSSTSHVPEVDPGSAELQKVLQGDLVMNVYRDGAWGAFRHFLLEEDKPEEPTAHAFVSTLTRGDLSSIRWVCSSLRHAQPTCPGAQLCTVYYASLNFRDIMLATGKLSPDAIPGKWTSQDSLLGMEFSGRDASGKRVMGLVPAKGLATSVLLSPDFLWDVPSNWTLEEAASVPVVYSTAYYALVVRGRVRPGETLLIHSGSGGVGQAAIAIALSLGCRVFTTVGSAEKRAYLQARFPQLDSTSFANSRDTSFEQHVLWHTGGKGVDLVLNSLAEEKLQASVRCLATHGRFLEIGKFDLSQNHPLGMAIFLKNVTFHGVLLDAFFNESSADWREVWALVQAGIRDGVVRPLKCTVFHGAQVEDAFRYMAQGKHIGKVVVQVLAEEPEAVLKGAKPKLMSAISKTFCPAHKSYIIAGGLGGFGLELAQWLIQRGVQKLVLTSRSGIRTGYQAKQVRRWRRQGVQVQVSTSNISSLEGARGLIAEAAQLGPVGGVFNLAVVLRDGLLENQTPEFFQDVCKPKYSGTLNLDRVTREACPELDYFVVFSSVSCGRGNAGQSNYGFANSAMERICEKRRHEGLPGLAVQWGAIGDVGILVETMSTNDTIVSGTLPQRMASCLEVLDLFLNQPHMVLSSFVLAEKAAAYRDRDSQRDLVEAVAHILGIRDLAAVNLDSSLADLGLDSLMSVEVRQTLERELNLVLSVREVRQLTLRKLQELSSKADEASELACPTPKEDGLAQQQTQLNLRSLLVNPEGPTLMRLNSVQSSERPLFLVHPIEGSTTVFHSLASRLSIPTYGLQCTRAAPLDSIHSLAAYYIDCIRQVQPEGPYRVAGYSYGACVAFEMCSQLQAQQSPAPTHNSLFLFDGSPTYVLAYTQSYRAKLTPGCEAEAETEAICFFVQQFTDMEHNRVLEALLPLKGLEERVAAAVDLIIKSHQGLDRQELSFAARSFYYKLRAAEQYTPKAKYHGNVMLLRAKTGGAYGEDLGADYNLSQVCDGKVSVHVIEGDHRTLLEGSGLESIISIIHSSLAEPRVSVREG

[3] = inhibitors of SNCA 5'UTR-driven reporter translation, confirmation, H4 neuroglioma cells, luminescence (AID 1988); assay type: functional, cell-based
[4] = target: T1, Fatty acid synthase; assay: FAS thioesterase domain inhibitors, dose response, biochemical, endpoint fluorescence intensity, uHTS hits (AID 624327); assay type: functional;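 note: fluorescence from hydrolysis of an O-methyl fluorescein acyl ester substrate by the enzyme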
[5] = inhibitors of firefly luciferase expression or activity, dose response, H4 neuroglioma cells, luminescence (AID 1990); assay type: functional, cell-based
[6] = Luminescence Cell-Based Dose Response HTS to Identify Inhibitors of 5'UTR Stem-Loop Driven Prion Protein mRNA Translation in H4 Neuroglioblastoma Cells. [Related pubchem assays: 1827 (Project Summary), 1813 (Primary HTS)]; assay type: functional
[7] = target: Beta Lactamase (Pseudomonas aeruginosa, UniProt Q932Y6); assay: beta-lactamase reporter inhibitor potency, dose response, artefact control for TLR9-MyD88 binding inhibitor project, BLA reporter cells, FRET fluorescence (AID 588341); assay type: cell-based;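 note: cell based assay in CHO-K1 cells stably expressing beta-lactamase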
Chain of Beta Lactamase (Q932Y6 whole entry): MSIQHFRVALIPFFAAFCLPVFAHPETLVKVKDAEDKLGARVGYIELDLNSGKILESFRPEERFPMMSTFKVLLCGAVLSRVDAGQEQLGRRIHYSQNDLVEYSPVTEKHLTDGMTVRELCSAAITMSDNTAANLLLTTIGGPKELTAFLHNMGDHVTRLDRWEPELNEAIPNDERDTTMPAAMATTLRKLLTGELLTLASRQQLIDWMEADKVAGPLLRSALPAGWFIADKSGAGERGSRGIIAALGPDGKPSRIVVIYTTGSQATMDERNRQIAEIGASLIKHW

[8] = target: Protein disulfide-isomerase (Homo sapiens, UniProt P07237); assay: PDI inhibitors, insulin aggregation turbidity, dose response, biochemical, absorbance, cherry-picked samples (AID 602350); assay type: functional
Chain of Protein disulfide-isomerase (P07237 whole entry): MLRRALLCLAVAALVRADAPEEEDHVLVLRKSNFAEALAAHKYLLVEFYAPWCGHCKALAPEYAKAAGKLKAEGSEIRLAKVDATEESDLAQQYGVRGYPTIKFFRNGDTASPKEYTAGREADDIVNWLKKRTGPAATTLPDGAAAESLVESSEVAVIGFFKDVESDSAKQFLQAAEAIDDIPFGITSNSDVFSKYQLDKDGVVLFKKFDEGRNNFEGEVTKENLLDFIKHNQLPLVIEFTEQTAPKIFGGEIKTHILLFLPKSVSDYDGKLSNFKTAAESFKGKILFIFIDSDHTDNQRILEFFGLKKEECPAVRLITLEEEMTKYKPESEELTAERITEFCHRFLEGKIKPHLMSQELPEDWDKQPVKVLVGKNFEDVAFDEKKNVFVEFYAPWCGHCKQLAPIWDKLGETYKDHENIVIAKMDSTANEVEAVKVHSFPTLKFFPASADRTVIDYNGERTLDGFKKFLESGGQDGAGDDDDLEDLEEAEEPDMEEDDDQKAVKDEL

[9] = test system: BJ; assay: cells; assay type: functional, cell-based; details: Homo sapiens
[10] = cytotoxicity toward DRD oncogenic fibroblasts, dose response, cell-based, non-viral oncogenic, luminescence (AID 1934); assay type: functional; details: Homo sapiens
[11] = test system: BJ; assay: cytotoxicity toward Ras-transformed BJeLR fibroblasts, dose response, cell-based, alamar blue fluorescence, cherrypicked samples (AID 2631); assay type: functional; details: Homo sapiens;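 note: confirmatory dose-response assay in RAS-dependent BJ fibroblasts engineered with TERT, LT and ST, with cytotoxicity read by fluorescence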
[12] = test system: BJ; assay: cytotoxicity toward BJ-TERT fibroblasts, dose response, cell-based, RAS-independent, luminescence (AID 1933); assay type: functional; details: Homo sapiens
[13] = test system: BJ; assay: cytotoxicity toward BJ-TERT-LT-ST fibroblasts, dose response, cell-based, RAS-independent, luminescence (AID 1935); assay type: functional; details: Homo sapiens;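 note: BJ fibroblasts immortalized with TERT plus LT and ST oncogenes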
[14] = target: T2, Carboxy-terminal domain RNA polymerase II polypeptide A small phosphatase 1 (Homo sapiens, UniProt Q9GZU7); assay: inhibitors of CTDSP1, concentration-response testing, biochemical assay, absorbance-based, actives from ultra-high-throughput screening (AID 540297); assay type: functional
T2 sequence (Q9GZU7 whole entry): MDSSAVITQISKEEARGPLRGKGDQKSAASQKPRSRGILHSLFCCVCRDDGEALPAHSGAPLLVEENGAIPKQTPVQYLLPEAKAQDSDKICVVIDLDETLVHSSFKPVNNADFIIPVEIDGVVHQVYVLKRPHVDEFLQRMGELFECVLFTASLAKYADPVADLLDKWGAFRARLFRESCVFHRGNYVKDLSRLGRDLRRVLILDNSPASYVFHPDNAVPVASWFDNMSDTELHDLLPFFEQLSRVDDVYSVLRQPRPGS

[15] = test system: Streptococcus; assay: Group A Streptococcus viability loss, dose response, counter-screen for streptokinase expression inhibitor project, luminescence, BacTiterGlo (AID 1915); assay type: functional, organism-based;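 note: potency for reduction of bacterial viability or growth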
[16] = target: T3, Streptokinase A (Streptococcus pyogenes serotype M1, UniProt P10520); assay: S. pyogenes streptokinase expression inhibitors, potency, dose response, plasminogen activation absorbance, OD405 (AID 1914); assay type: functional, Streptococcus pyogenes M1 GAS;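 note: secreted streptokinase activity via plasminogen activation per viability signal from cell pellet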
T3 sequence (P10520 whole entry): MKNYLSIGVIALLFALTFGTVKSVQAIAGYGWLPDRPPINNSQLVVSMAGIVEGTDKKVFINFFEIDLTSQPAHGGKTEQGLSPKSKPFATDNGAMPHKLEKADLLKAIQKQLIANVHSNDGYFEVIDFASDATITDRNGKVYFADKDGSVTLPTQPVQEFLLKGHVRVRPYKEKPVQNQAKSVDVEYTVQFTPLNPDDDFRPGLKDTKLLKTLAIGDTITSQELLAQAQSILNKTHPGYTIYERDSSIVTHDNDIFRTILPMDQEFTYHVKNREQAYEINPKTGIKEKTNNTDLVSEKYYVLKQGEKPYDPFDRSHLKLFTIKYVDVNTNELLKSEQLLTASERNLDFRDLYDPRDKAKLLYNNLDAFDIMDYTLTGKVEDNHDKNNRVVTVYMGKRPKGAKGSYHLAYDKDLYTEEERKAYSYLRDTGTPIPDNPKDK

[17] = test system: Streptococcus sp. 'group A'; assay: growth inhibition of control SK(-) GAS strain, dose response, counter-screen for streptokinase expression inhibitor project, luminescence, kanamycin, BacTiterGlo, confirmation (AID 1900); assay type: functional, organism-based
[18] = target: DNA (cytosine-5)-methyltransferase 1 (Homo sapiens, UniProt P26358); assay: DNMT1 methyltransferase inhibitors, confirmation, biochemical, fluorescent molecular beacon (AID 602386); assay type: functional
[19] = target: Beta-2 adrenergic receptor (Homo sapiens, UniProt P07550); assay: beta2AR agonists driving receptor internalization, dose response, cell-based, FAP fluorogen, flow cytometry, cherry pick 1 (AID 588763); assay type: functional
Chain of Beta-2 adrenergic receptor (P07550 whole entry): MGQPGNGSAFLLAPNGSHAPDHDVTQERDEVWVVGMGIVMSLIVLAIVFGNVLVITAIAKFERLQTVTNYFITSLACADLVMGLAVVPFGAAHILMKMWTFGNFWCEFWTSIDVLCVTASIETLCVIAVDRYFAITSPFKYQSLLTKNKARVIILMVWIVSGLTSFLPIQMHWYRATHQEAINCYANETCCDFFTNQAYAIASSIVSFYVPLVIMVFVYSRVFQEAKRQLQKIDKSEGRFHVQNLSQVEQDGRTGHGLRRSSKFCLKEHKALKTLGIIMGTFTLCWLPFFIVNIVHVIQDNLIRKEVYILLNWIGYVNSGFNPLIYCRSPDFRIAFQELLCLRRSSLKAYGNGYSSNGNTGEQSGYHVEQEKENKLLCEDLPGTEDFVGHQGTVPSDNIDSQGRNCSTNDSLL

[20] = inhibitors of intracellular T. cruzi replication, confirmation, NIH3T3 host cells, beta-gal luminescence (AID 2044); assay type: functional, cell-based;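 note: intracellular parasites grown in NIH/3T3 mouse fibroblasts as host cells; luminescent beta-galactosidase reporter signal from transgenic T. cruzi replicating inside host cells; inhibitors lower the luminescence signal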
[21] = cytotoxicity toward NIH3T3 fibroblasts, dose response, counter-screen, cell-based, ATP luminescence, mouse fibroblasts (AID 2010); assay type: functional;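 note: cells exposed to compound for about 90 hours before reading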
[22] = Shn3 3'UTR reporter inhibitors, dose response, cell-based, Clone20 osteoblasts, firefly luciferase, cherry-picked (AID 624132); assay type: functional;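 note: firefly luciferase luminescence from reporter carrying the Shn3 3'UTR in osteoblasts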
[23] = HepG2 cell cytotoxicity, dose response, cytotoxicity control for Shn3 inhibitor project, CellTiter-Glo, cherry-picked (AID 624134); assay type: functional, cell-based
[24] = target: T4, Corticotropin-releasing factor receptor 2/Corticotropin-releasing factor-binding protein (Homo sapiens, UniProt P24387+Q13324); assay: activators of CRF receptor 2 with binding protein – uHTS hits, confirmation (AID 602473); assay type: functional; details: read-out: EC50_Mean
T4 sequence (Q13324 whole entry): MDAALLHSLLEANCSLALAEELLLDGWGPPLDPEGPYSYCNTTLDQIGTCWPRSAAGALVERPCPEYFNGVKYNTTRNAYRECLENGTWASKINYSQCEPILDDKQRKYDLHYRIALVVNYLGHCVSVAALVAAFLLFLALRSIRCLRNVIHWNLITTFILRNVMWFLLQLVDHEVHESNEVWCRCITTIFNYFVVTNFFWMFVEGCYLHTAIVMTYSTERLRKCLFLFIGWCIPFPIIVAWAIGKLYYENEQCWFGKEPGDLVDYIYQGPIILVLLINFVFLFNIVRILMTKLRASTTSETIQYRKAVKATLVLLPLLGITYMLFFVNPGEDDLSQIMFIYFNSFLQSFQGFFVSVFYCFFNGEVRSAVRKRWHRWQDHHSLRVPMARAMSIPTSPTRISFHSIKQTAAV
T4 sequence (P24387 whole entry): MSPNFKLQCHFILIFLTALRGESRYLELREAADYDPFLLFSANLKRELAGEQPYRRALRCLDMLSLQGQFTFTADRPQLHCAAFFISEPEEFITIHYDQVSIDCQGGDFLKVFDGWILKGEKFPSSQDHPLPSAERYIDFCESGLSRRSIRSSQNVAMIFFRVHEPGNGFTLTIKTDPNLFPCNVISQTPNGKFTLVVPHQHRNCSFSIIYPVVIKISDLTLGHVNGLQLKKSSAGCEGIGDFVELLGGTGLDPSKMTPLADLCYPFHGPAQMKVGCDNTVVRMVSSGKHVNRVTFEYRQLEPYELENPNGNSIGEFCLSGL

[25] = target: T5, Heat shock factor protein 1 (Mus musculus, UniProt P38532); assay: HSF1 potentiators in luciferase reporter cells, confirmation, cell-based, NIH3T3, luminescence, dose retest (AID 435004); assay type: functional;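 note: stress induced by proteasome inhibitor MG132 added 30 min after compound; luciferase reporter driven by HSF1 response element in NIH3T3 cells; actives raise luminescence as potentiators of the MG132 stress response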
T5 sequence (P38532 whole entry): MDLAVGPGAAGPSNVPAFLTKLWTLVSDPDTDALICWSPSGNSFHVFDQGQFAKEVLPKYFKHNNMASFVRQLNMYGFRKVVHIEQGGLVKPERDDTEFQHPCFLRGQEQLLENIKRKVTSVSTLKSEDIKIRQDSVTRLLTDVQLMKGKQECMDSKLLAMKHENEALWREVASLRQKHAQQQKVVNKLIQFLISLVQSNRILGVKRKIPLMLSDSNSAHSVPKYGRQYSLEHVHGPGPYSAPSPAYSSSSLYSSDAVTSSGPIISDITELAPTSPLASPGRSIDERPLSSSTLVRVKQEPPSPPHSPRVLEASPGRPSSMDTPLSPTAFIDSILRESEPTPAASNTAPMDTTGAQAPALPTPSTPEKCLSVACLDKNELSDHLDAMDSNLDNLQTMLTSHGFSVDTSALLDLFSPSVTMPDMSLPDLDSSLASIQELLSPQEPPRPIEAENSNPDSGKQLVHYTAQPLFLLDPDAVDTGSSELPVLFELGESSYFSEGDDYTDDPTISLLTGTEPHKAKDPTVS

SMILES: Cc1ccc(C(=O)N/C(=C/c2ccc(-c3ccc([N+](=O)[O-])cc3)o2)C(=O)NCCCN(C)C)cc1
- IC50 [1]: 22.9 µM (inactive)
- IC50 [2]: 5.71 µM (active)
- EC50 [3]: > 120 µM (not active)
- IC50 [4]: 13.8 µM (active)
- EC50 [5]: > 120 µM (not active)
- EC50 [6]: > 120 µM (not active)
- IC50 [7]: 6.55 µM (active)

SMILES: CCN1C(=O)C2C(c3ccccc3F)NC(Cc3ccc(O)cc3)(C(=O)OC)C2C1=O (stereo not drawn)
- AC50 [8]: 10.2 µM (active)

SMILES: COc1cccc(CSc2nc3ccccc3cc2C=O)c1
- EC50 [9]: 21.6 µM (active)
- EC50 [10]: 1.27 µM (active)
- EC50 [3]: 13.7 µM (active)
- EC50 [11]: 0.301 µM (active)
- EC50 [12]: 0.944 µM (inconclusive)
- EC50 [5]: 16.6 µM (active)
- EC50 [6]: 17.7 µM (active)
- EC50 [13]: 1.17 µM (active)

SMILES: CC(=O)OCC1=C(C(=O)O)N2C(=O)C(NC(=O)c3ccc(COc4cccc(Cl)c4Cl)o3)C2SC1 (stereo not drawn)
- IC50 [14]: 5.07 µM (active)
- EC50 [15]: 8.94 µM (active)
- EC50 [16]: 12.6 µM (active)
- EC50 [17]: 5.04 µM (active)
- IC50 [18]: 8.67 µM (active)

SMILES: CCC(C)C(=O)OCC1(c2ccc(C)cc2OC(=O)C(C)C)CO1 (stereo not drawn)
- EC50 [11]: 8.58 µM (active)

SMILES: CCN(c1ccc2c(c1)OCO2)S(=O)(=O)c1cc(Br)cc2c1N(C(C)=O)CC2
- EC50 [19]: 10.5 µM (inactive)
- EC50 [20]: 0.891 µM (active)
- EC50 [21]: > 60 µM (not active)

SMILES: O=C(NCc1ccccc1C(F)(F)F)c1cccc2c1C(=O)c1ccc(N3CCC(N4CCCCC4)CC3)cc1S2(=O)=O
- IC50 [1]: 8.71 µM (active)
- AC50 [22]: 21.2 µM (active)
- AC50 [23]: 9.77 µM (active)
- IC50 [7]: 5.89 µM (active)

SMILES: CCN1CC2(COC(=O)c3ccccc3N)CCC(OC)C34C5CC6C(OC)CC(O)(C5C6OC)C(O)(C(OC)C23)C14 (stereo not drawn)
- AC50 [8]: 19.5 µM (active)

SMILES: Cc1c(-n2cc(C(=O)c3ccccc3O)cc(C#N)c2=O)c(=O)n(-c2ccccc2)n1C
- AC50 [8]: 5.89 µM (active)
- EC50 [24]: 8.01 µM (active)
- EC50 [25]: > 260 µM (inactive)
